Assay type in all cases: functional
Assay [1] concerns Staphylococcus aureus. Kind of assay: Antimicrobial activity against methicillin-resistant Staphylococcus aureus KMP9.
For another assay, the system named is Enterococcus faecium. Kind of assay: Antimicrobial activity against vancomycin-resistant Enterococcus faecium KU1778 by NCCLS method.
The subject of assay [2] is Streptococcus pneumoniae. The assay can be described thus: Antimicrobial activity against penicillin-resistant Streptococcus pneumoniae KT2524 by NCCLS method.
Assay [3] has as its system Streptococcus pneumoniae. The assay can be described thus: Antimicrobial activity against penicillin-susceptible Streptococcus pneumoniae ATCC 49619 by NCCLS method.
Assay [4] has as its system Staphylococcus aureus. The assay can be described thus: Antimicrobial activity against methicillin-susceptible Staphylococcus aureus Smith by NCCLS method.
Another assay has as its system Haemophilus influenzae. The assay can be described thus: Antimicrobial activity against Haemophilus influenzae TH13 by NCCLS method.
A further assay relates to Moraxella catarrhalis. Kind of assay: Antimicrobial activity against Moraxella catarrhalis K1209 by NCCLS method.
The test system of the next assay is Streptococcus pyogenes. The assay can be described thus: Antimicrobial activity against Streptococcus pyogenes ATCC 112344 by NCCLS method.
For assay [5], the system named is Staphylococcus aureus. The assay can be described thus: Antimicrobial activity against methicillin-susceptible Staphylococcus aureus infected iv dosed mouse assessed as survival rate after 1 hr of infection.

Consider `C=C[C@]1(C)C[C@@H](OC(=O)CN2CCN(C(=O)CCn3cnc4c(N5CCC(N)C5)ncnc43)C(CC)C2)[C@]2(C)[C@H](C)CC[C@]3(CCC(=O)[C@@H]32)[C@@H](C)[C@@H]1O.Cl.Cl` (some centres undefined), for which the MIC came to 0.25 µg/mL against Staphylococcus aureus [1]; 0.125 µg/mL with Enterococcus faecium; 0.063 µg/mL against Streptococcus pneumoniae [2]; 0.063 µg/mL against Streptococcus pneumoniae [3]; 0.25 µg/mL against Staphylococcus aureus [4]; 4 µg/mL against Haemophilus influenzae. Besides, the MIC against Moraxella catarrhalis was 0.125 µg/mL; against Streptococcus pyogenes, 0.032 µg/mL. The ED50 (in general, the midpoint of the dose-response relation) in the assay on Staphylococcus aureus [5] came to 2.95 mg/kg.

Consider `C=C[C@]1(C)C[C@@H](OC(=O)CN2CCN(C(=O)CCn3cnc4c(N5CCC(N)CC5)ncnc43)[C@@H](C)C2)[C@]2(C)[C@H](C)CC[C@]3(CCC(=O)[C@@H]32)[C@@H](C)[C@@H]1O.Cl.Cl`, for which the MIC in the assay on Staphylococcus aureus [1] came to 0.5 µg/mL; in the assay on Enterococcus faecium, 0.125 µg/mL; in the assay with Streptococcus pneumoniae [2], 0.063 µg/mL; against Streptococcus pneumoniae [3] it was 0.063 µg/mL; against Staphylococcus aureus [4], 0.25 µg/mL; against Haemophilus influenzae, 4 µg/mL. Further, the MIC in the assay on Moraxella catarrhalis worked out at 0.125 µg/mL; in the assay on Streptococcus pyogenes, 0.032 µg/mL. Moreover, the median effective dose (ED50) in the assay on Staphylococcus aureus [5] came out at 1.66 mg/kg.

Take `C=C[C@]1(C)C[C@@H](OC(=O)CN2CCN(C(=O)CCn3cnc4c(N5CCC(CNC)C5)ncnc43)[C@@H](C)C2)[C@]2(C)[C@H](C)CC[C@]3(CCC(=O)[C@@H]32)[C@@H](C)[C@@H]1O.Cl.Cl` (some centres undefined): the MIC was 1 µg/mL against Staphylococcus aureus [1]; 0.25 µg/mL against Enterococcus faecium; 0.032 µg/mL with Streptococcus pneumoniae [2]; 0.063 µg/mL against Streptococcus pneumoniae [3]; 0.125 µg/mL with Staphylococcus aureus [4]; 2 µg/mL in the assay on Haemophilus influenzae. Also, the MIC was found to be 0.125 µg/mL in the assay with Moraxella catarrhalis and 0.063 µg/mL with Streptococcus pyogenes. For the same molecule, the ED50 in the assay with Staphylococcus aureus [5] was determined as 1.2 mg/kg.

Consider `C=C[C@]1(C)C[C@@H](OC(=O)CN2CCN(C(=O)CCn3cnc4c(N5CC[C@H](CNC)C5)ncnc43)CC2)[C@]2(C)[C@H](C)CC[C@]3(CCC(=O)[C@@H]32)[C@@H](C)[C@@H]1O.Cl.Cl`, for which the MIC in the assay with Staphylococcus aureus [1] is 2 µg/mL; against Enterococcus faecium, 0.5 µg/mL; in the assay on Streptococcus pneumoniae [2], 0.063 µg/mL; against Streptococcus pneumoniae [3] it was 0.125 µg/mL; against Staphylococcus aureus [4] it was 0.25 µg/mL; with Haemophilus influenzae, 0.5 µg/mL. Besides, the MIC against Moraxella catarrhalis stood at 0.125 µg/mL; against Streptococcus pyogenes it was 0.032 µg/mL. The ED50 in the assay on Staphylococcus aureus [5] amounted to 0.83 mg/kg.

`C=C[C@]1(C)C[C@@H](OC(=O)CN2CCCN(C(=O)CCn3cnc4c(N5CCC(N)C5)ncnc43)CC2)[C@]2(C)[C@H](C)CC[C@]3(CCC(=O)[C@@H]32)[C@@H](C)[C@@H]1O.Cl.Cl` (some centres undefined): the MIC was determined as 1 µg/mL with Staphylococcus aureus [1]; 0.25 µg/mL against Enterococcus faecium; 0.063 µg/mL against Streptococcus pneumoniae [2]; 0.063 µg/mL in the assay on Streptococcus pneumoniae [3]; 0.5 µg/mL in the assay with Staphylococcus aureus [4]; 4 µg/mL with Haemophilus influenzae. Also, the MIC worked out at 0.25 µg/mL against Moraxella catarrhalis and 0.032 µg/mL in the assay on Streptococcus pyogenes. Further, in the assay with Staphylococcus aureus [5], the ED50 turned out to be 2.51 mg/kg.

With `C=C[C@]1(C)C[C@@H](OC(=O)CN2CCN(C(=O)CCn3cnc4c(N5CCC(N)C5)ncnc43)CC2C)[C@]2(C)[C@H](C)CC[C@]3(CCC(=O)[C@@H]32)[C@@H](C)[C@@H]1O.Cl.Cl` (some centres undefined), the MIC in the assay with Staphylococcus aureus [1] was found to be 0.5 µg/mL; against Enterococcus faecium, 0.125 µg/mL; with Streptococcus pneumoniae [2], 0.063 µg/mL; against Streptococcus pneumoniae [3], 0.063 µg/mL; in the assay with Staphylococcus aureus [4] it was 0.25 µg/mL; in the assay with Haemophilus influenzae, 2 µg/mL. Further, the values for the MIC in the assay with Moraxella catarrhalis and against Streptococcus pyogenes were 0.125 µg/mL and 0.032 µg/mL, respectively. Further, the median effective dose (ED50) with Staphylococcus aureus [5] is 1.42 mg/kg.

As for `C=C[C@]1(C)C[C@@H](OC(=O)CN2CCN(C(=O)CCn3cnc4c(N5CC[C@@H](CNC)C5)ncnc43)CC2)[C@]2(C)[C@H](C)CC[C@]3(CCC(=O)[C@@H]32)[C@@H](C)[C@@H]1O.Cl.Cl`, the MIC was found to be 2 µg/mL against Staphylococcus aureus [1]; 0.5 µg/mL in the assay with Enterococcus faecium; 0.125 µg/mL in the assay on Streptococcus pneumoniae [2]; 0.125 µg/mL in the assay on Streptococcus pneumoniae [3]; 0.25 µg/mL against Staphylococcus aureus [4]; 2 µg/mL against Haemophilus influenzae. Also, the figures for the MIC with Moraxella catarrhalis and against Streptococcus pyogenes were 0.125 µg/mL and 0.063 µg/mL, respectively. Further, the ED50 in the assay with Staphylococcus aureus [5] came to 1.18 mg/kg.

Take `C=C[C@]1(C)C[C@@H](OC(=O)CN2CCN(C(=O)CCn3cnc4c(N5CCC(N)C5)ncnc43)C[C@@H]2C)[C@]2(C)[C@H](C)CC[C@]3(CCC(=O)[C@@H]32)[C@@H](C)[C@@H]1O.Cl` (some centres undefined): the MIC turned out to be 0.5 µg/mL in the assay on Staphylococcus aureus [1]; 0.125 µg/mL with Enterococcus faecium; 0.063 µg/mL in the assay with Streptococcus pneumoniae [2]; 0.125 µg/mL against Streptococcus pneumoniae [3]; 0.25 µg/mL in the assay with Staphylococcus aureus [4]; 4 µg/mL against Haemophilus influenzae. Moreover, the MIC was 0.125 µg/mL with Moraxella catarrhalis and 0.032 µg/mL in the assay with Streptococcus pyogenes. Also, the ED50 with Staphylococcus aureus [5] turned out to be 1.28 mg/kg.

In the case of `C=C[C@]1(C)C[C@@H](OC(=O)CN2CC(C)N(C(=O)CCn3cnc4c(N5CCC(N)C5)ncnc43)CC2C)[C@]2(C)[C@H](C)CC[C@]3(CCC(=O)[C@@H]32)[C@@H](C)[C@@H]1O.Cl.Cl` (some centres undefined), the MIC worked out at 0.25 µg/mL against Staphylococcus aureus [1]; 0.125 µg/mL against Enterococcus faecium; 0.063 µg/mL with Streptococcus pneumoniae [2]; 0.063 µg/mL against Streptococcus pneumoniae [3]; 0.25 µg/mL in the assay on Staphylococcus aureus [4]; 4 µg/mL in the assay with Haemophilus influenzae. Moreover, the values for the MIC against Moraxella catarrhalis and with Streptococcus pyogenes were 0.125 µg/mL and 0.032 µg/mL, respectively. The ED50 in the assay on Staphylococcus aureus [5] amounted to 3.13 mg/kg.

In the case of `C=C[C@]1(C)C[C@@H](OC(=O)CN2CCN(C(=O)CCn3cnc4c(N5CCC(N)C5)ncnc43)CC2)[C@]2(C)[C@H](C)CC[C@]3(CCC(=O)[C@@H]32)[C@@H](C)[C@@H]1O.Cl.Cl` (some centres undefined), the MIC stood at 1 µg/mL in the assay with Staphylococcus aureus [1]; 0.5 µg/mL with Enterococcus faecium; 0.063 µg/mL in the assay with Streptococcus pneumoniae [2]; 0.063 µg/mL with Streptococcus pneumoniae [3]; 0.25 µg/mL with Staphylococcus aureus [4]; 4 µg/mL against Haemophilus influenzae. In addition, the MIC against Moraxella catarrhalis was 0.25 µg/mL; against Streptococcus pyogenes it was 0.032 µg/mL. Further, the ED50 with Staphylococcus aureus [5] turned out to be 0.8 mg/kg.

On to `C=C[C@]1(C)C[C@@H](OC(=O)CN2CCN(C(=O)CCn3cnc4c(N5CC[C@@H](N)C5)ncnc43)[C@@H](C)C2)[C@]2(C)[C@H](C)CC[C@]3(CCC(=O)[C@@H]32)[C@@H](C)[C@@H]1O.Cl.Cl`, for which the MIC in the assay on Staphylococcus aureus [1] was determined as 0.25 µg/mL; in the assay on Enterococcus faecium it was 0.125 µg/mL; in the assay with Streptococcus pneumoniae [2] it was 0.032 µg/mL; in the assay on Streptococcus pneumoniae [3], 0.032 µg/mL; with Staphylococcus aureus [4], 0.125 µg/mL; against Haemophilus influenzae, 2 µg/mL. The figures for the MIC with Moraxella catarrhalis and against Streptococcus pyogenes were 0.125 µg/mL and 0.016 µg/mL, respectively. Besides, the ED50 in the assay on Staphylococcus aureus [5] is 1.56 mg/kg.

(Values after ChEMBL document CHEMBL1139278 (2009).)
